# Test results from ChEMBL document CHEMBL1158183, “Use of self-organizing maps and molecular descriptors to predict the cytotoxic activity of sesquiterpene lactones” (2008).
# Tested on: KB
# Assay: Cytotoxicity against human KB cells
# Type: functional
# Conditions: read-out: ED50 (the source's name)
row,Compound,EC50 [µM]
1,C=C1C(=O)O[C@@H]2[C@H]1CC[C@H](C)[C@@H]1C[C@@H](O)C(=O)[C@@]21C,10
2,C=C1C(=O)O[C@H]2[C@H]1[C@H](OC(=O)/C(C)=C\C)C[C@@]1(CO1)[C@@H]1[C@H](O)[C@H]3O[C@@]3(C)[C@]21O,0.63
3,C=C1C(=O)O[C@@H]2C3O[C@]3(C)CC/C=C(\C)CC[C@@H]12 (some centres undefined),5.3
4,C=C1C(=O)O[C@@H]2/C=C(\CO)CC/C=C(\CO)C[C@H](OC(=O)C(C)C)[C@@H]12 [ALATOLIDE],4
5,C=C1C(=O)O[C@@H]2[C@H]1CC[C@H](C)[C@@H]1C=CC(=O)[C@@]21C [AMBROSIN],1.83
6,C=C1C(=O)O[C@H]2C[C@@]3(CO3)[C@@H]3C[C@H](OC(C)=O)C(=C)[C@]3(O)C[C@H]12 [ARCTOLIDE],29
7,C=C1C(=O)O[C@H]2C[C@@H](C)[C@@H]3C=CC(=O)[C@@]3(C)C[C@H]12 [AROMATICIN],1.38
8,C=C1C(=O)O[C@H]2C/C(C)=C/C[C@@H](OC(C)=O)/C(C)=C/[C@@H](OC(C)=O)[C@@H]12 [CHAMMISSONIN DIACETATE],6.12
9,C=C1C(=O)O[C@@H]2[C@H]1CC[C@H](C)[C@]1(O)CCC(=O)[C@@]21C [CORONOPILIN],5.49
10,C=C1C(=O)O[C@@H]2/C=C(\C)CC/C=C(\C)CC[C@@H]12 [COSTUNOLIDE],2.46
11,C=C1C(=O)O[C@H]2/C=C(\C)C(=O)C/C=C(/C)C[C@H](OC(=O)/C(C)=C\C)[C@@H]12 [DEHYDRONOBILIN],2.7
12,C=C1C(=O)O[C@@H]2[C@H]3C(CO)=CC(=O)C3=C(C)CC[C@@H]12 [DEOXYLACTUCIN],3.1
13,C=C1C(=O)O[C@@H]2[C@H]1[C@@H](O)C[C@H](C)[C@@H]1CCC(=O)[C@@]21C [DESACETYLCONFERTIFLORIN],8.71
14,C=C1C(=O)O[C@H]2[C@H]1[C@@H](OC(=O)C=C(C)C)CC1=C[C@@H](C[C@@]3(C)O[C@H]23)OC1=O [ELEPHANTIN],3.22
15,C=C1C(=O)O[C@H]2CC3=C[C@@H](C[C@]4(C)O[C@@H]4[C@@H](O)[C@H]12)OC3=O [ELEPHANTOL],123
16,C=C(C)C(=O)O[C@H]1CC2=C[C@@H](C[C@@]3(C)O[C@@H]3[C@H]3OC(=O)C(=C)[C@@H]31)OC2=O [ELEPHANTOPIN],2.51
17,C=C1C(=O)O[C@@H]2/C=C(/C)[C@@H](O)C[C@H]3O[C@]3(C)C[C@@H](OC(=O)/C(C)=C\C)[C@@H]12 [EPOXYNOBILIN],0.99
18,C=C1[C@H](O)C[C@H](O)[C@]2(C)CC[C@@H]3[C@H](OC(=O)[C@H]3C)[C@@H]12 [ERIVANIN],1.1
19,C=C1C(=O)O[C@H]2[C@H]1[C@H](OC(=O)/C(C)=C\C)C[C@](O)(CCl)[C@@H]1[C@H](OC(C)=O)C=C(C)[C@]21O [EUPACHLORIN ACETATE],0.35
20,C=C1C(=O)O[C@H]2[C@H]1[C@H](OC(=O)/C(C)=C\C)C[C@](O)(CCl)[C@@H]1[C@H](O)C=C(C)[C@]21O [EUPACHLORIN],0.51
21,C=C1C(=O)O[C@H]2[C@H]1[C@H](OC(=O)/C(C)=C\C)C[C@](O)(CCl)[C@@H]1[C@H](O)[C@H]3O[C@@]3(C)[C@]21O [EUPACHLOROXIN],8.39
22,C=C1C(=O)O[C@@H]2/C=C(/CO)[C@@H](OC(C)=O)C[C@H](O)/C(C)=C\[C@@H](OC(=O)/C(C)=C/C)[C@@H]12 [EUPACUNOLIN],8.8
23,C=C1C(=O)O[C@@H]2/C=C(/C)[C@@H](OC(C)=O)C[C@H](O)/C(C)=C\[C@@H](OC(=O)[C@]3(C)O[C@@H]3C)[C@@H]12 [EUPACUNOXIN],5
24,C=C1C(=O)O[C@H]2[C@H]1[C@H](OC(=O)/C(C)=C\C)C[C@]1(CO1)[C@@H]1[C@H](OC(C)=O)C=C(C)[C@]21O [EUPAROTIN ACETATE],0.53
25,C=C1C(=O)O[C@H]2[C@H]1[C@H](OC(=O)/C(C)=C/C)C[C@]1(CO1)[C@@H]1[C@H](O)C=C(C)[C@]21O [EUPAROTIN],0.56
26,C=C1C(=O)O[C@@H]2/C=C(\C)[C@@H](OC(C)=O)C/C=C(/C)C(O)[C@@H](OC(=O)/C(C)=C\C)[C@@H]12 (some centres undefined) [EUPATOCUNIN],0.27
27,C=C1C(=O)O[C@@H]2/C=C(\C)[C@@H](OC(C)=O)C/C=C(\C)C(OC(=O)[C@]3(C)O[C@@H]3C)C(O)[C@@H]12 (some centres undefined) [EUPATOCUNOXIN],4.04

row,Compound,EC50 [µM]
1,C=C1C(=O)O[C@@H]2/C=C(\C)CC/C=C(\C)C[C@@H](O)[C@@H]12 [EUPATOLIDE],5
2,C=C1C(=O)O[C@@H]2/C=C(\C)CC/C=C(/C)C[C@@H](OC(=O)/C(=C/CO)CO)[C@@H]12 [EUPATORIOPICRIN],3.3
3,C=C1C(=O)O[C@H]2[C@H]1[C@H](OC(=O)/C(C)=C\C)C[C@]1(CO1)[C@@H]1[C@H](O)[C@H]3O[C@@]3(C)[C@]21O [EUPATOROXIN],7.14
4,C=C1C(=O)O[C@H]2[C@H]1[C@H](OC(=O)/C(C)=C\C)CC(=C)[C@@H]1[C@H](O)[C@H]3O[C@@]3(C)[C@@]12O [EUPATUNDIN],1.04
5,C=C1C(=O)O[C@H]2C=C(C)[C@H]3[C@@H](OC(C)=O)C[C@@](C)(O)[C@@H]3C[C@H]12 [GAILLARDIN],7.52
6,C=C1C(=O)O[C@@H]2C[C@@H](C)[C@@H]3C=CC(=O)[C@@]3(C)[C@@H](O)[C@H]12 [HELENALIN],0.76
7,C=C1C(=O)O[C@H]2C[C@@]3(C)O[C@@H]3CC/C(C(=O)OC)=C\C[C@H]12 [HIRUSUTOLIDE],7
8,C=C1CC(OC(=O)/C(C)=C/C)C2C(=C)C(=O)OC2/C=C(\C)C(O)CC1O (centres undefined) [HYDROXYISONOBILIN],3.7
9,C=C1C(=O)O[C@@H]2[C@H]3C(CO)=CC(=O)C3=C(C)C[C@@H](O)[C@@H]12 [LACTUCIN],260
10,C=C1C(=O)O[C@@H]2/C=C(/C)[C@@]3(O)C=C[C@@](C)(C[C@@H](OC(=O)/C(=C\C)COC(C)=O)[C@@H]12)O3 [LIATRIN],3.93
11,C=C1C(=O)O[C@H]2C[C@@H](C)[C@@H]3C=CC(=O)[C@@]3(C)[C@H](OC(C)=O)[C@H]12 [LINIFOLIN A],2
12,C=C1C(=O)O[C@H]2C[C@@H](C)[C@@H]3C=CC(=O)[C@@]3(C)[C@H](O)[C@H]12 [MEXICANIN I],1.26
13,C=C1C(=O)O[C@@H]2[C@H]1CC[C@H](C)[C@]1(O)C=CC(=O)[C@@]21C [PARTHENIN],1.3
14,C=C1C(=O)O[C@@H]2/C=C(\CO)CC/C=C(\C)C[C@H](O)[C@@H]12 [SALONITENOLIDE],9.1
15,C=C1C(=O)O[C@@H]2/C=C(\C)C[C@H](O)/C=C(\C)CC[C@@H]12 [TAMAULIPIN A],5.08
16,C=C1C(=O)O[C@@H]2/C=C(\C)[C@H](O)C/C=C(\C)CC[C@@H]12 [TAMAULIPIN B],10.5
17,C=C[C@@]12COC(=O)C(=C)[C@@H]1[C@H]1OC(=O)C(=C)[C@@H]1[C@@H](OC(=O)C(=C)CO)C2 [VERNODALIN],5
18,C=C1[C@@H]2[C@H]3OC(=O)C(=C)[C@@H]3CCC(=C)[C@H]2C[C@@H]1OC(=O)C=C(C)C [VERNOFLEXIN],4.3
19,C=C1[C@@H]2[C@H]3OC(=O)C(=C)[C@@H]3CCC(=C)[C@@H]2C[C@@H]1O[C@@H]1O[C@H](COC(C)=O)[C@@H](OC(C)=O)[C@H](OC(C)=O)[C@H]1OC(C)=O [VERNOFLEXUOSIDE TETRA ACETYL],8.75
20,C=C1[C@@H]2[C@H]3OC(=O)C(=C)[C@@H]3CCC(=C)[C@@H]2C[C@@H]1O[C@@H]1O[C@H](CO)[C@@H](O)[C@H](O)[C@H]1O [VERNOFLEXUOSIDE],19
21,C=C[C@@]12COC(=O)C(=C)[C@@H]1[C@H]1OC(=O)C(=C)[C@@H]1[C@@H](OC(C)=O)C2 [VERNOLEPIN ACETATE],8.49
22,C=C[C@@]12COC(=O)C(=C)[C@@H]1[C@H]1OC(=O)C(=C)[C@@H]1[C@@H](OC(=O)C(=C)C)C2 [VERNOLEPIN METHACRYLATE],1.22
23,C=C[C@@]12COC(=O)C(=C)[C@@H]1[C@H]1OC(=O)C(=C)[C@@H]1[C@@H](O)C2 [VERNOLEPIN],6.52
24,C=C[C@]12COC(=O)C(=C)[C@H]1[C@H](OC(C)=O)[C@H]1C(=C)C(=O)O[C@@H]1C2 [VERNOMENIN ACETATE],26.2
25,C=C[C@@]12COC(=O)C(=C)[C@@H]1[C@@H](O)[C@@H]1C(=C)C(=O)O[C@H]1C2 [VERNOMENIN],127
26,C=C1C(=O)O[C@@H]2/C=C3\CCC4OC4(C[C@H](OC(=O)C(C)C)[C@@H]12)C(O)OC3 (some centres undefined) [VERNOMYGDIN],4.12
27,C=C1C(=O)O[C@H]2C[C@H](C)[C@@H]3CC(=O)C(C)=C3C[C@H]12 [XERANTOLIDE],6.1
